What was measured:
Assay in all cases: KinomeScan
Type in all cases: binding
Conditions in all cases: 1 μM
EGFR(T790M) = biological target: T1, EGFR(T790M) (Homo sapiens, UniProt P00533, T790M)
T1 construct: purchased DiscoverX (KINOMEscan)

BTK = biological target: T2, BTK (Homo sapiens, UniProt Q06187)
T2 construct: purchased DiscoverX (KINOMEscan)

MST1 = biological target: T3, MST1 (Homo sapiens, UniProt Q13043)
T3 construct: purchased DiscoverX (KINOMEscan)

CASK = biological target: T4, CASK (Homo sapiens, UniProt O14936)
T4 construct: purchased DiscoverX (KINOMEscan)

LIMK2 = biological target: T5, LIMK2 (Homo sapiens, UniProt P53671)
T5 construct: purchased DiscoverX (KINOMEscan)

p38-alpha = biological target: T6, p38-alpha (Homo sapiens, UniProt Q16539)
T6 construct: purchased DiscoverX (KINOMEscan)

MAP4K2 = biological target: T7, MAP4K2 (Homo sapiens, UniProt Q12851)
T7 construct: purchased DiscoverX (KINOMEscan)

ACVR1 = biological target: T8, ACVR1 (Homo sapiens, UniProt Q04771)
T8 construct: purchased DiscoverX (KINOMEscan)

CDC2L5 = biological target: T9, CDC2L5 (Homo sapiens, UniProt Q14004)
T9 construct: purchased DiscoverX (KINOMEscan)
T9 sequence (Q14004 whole entry): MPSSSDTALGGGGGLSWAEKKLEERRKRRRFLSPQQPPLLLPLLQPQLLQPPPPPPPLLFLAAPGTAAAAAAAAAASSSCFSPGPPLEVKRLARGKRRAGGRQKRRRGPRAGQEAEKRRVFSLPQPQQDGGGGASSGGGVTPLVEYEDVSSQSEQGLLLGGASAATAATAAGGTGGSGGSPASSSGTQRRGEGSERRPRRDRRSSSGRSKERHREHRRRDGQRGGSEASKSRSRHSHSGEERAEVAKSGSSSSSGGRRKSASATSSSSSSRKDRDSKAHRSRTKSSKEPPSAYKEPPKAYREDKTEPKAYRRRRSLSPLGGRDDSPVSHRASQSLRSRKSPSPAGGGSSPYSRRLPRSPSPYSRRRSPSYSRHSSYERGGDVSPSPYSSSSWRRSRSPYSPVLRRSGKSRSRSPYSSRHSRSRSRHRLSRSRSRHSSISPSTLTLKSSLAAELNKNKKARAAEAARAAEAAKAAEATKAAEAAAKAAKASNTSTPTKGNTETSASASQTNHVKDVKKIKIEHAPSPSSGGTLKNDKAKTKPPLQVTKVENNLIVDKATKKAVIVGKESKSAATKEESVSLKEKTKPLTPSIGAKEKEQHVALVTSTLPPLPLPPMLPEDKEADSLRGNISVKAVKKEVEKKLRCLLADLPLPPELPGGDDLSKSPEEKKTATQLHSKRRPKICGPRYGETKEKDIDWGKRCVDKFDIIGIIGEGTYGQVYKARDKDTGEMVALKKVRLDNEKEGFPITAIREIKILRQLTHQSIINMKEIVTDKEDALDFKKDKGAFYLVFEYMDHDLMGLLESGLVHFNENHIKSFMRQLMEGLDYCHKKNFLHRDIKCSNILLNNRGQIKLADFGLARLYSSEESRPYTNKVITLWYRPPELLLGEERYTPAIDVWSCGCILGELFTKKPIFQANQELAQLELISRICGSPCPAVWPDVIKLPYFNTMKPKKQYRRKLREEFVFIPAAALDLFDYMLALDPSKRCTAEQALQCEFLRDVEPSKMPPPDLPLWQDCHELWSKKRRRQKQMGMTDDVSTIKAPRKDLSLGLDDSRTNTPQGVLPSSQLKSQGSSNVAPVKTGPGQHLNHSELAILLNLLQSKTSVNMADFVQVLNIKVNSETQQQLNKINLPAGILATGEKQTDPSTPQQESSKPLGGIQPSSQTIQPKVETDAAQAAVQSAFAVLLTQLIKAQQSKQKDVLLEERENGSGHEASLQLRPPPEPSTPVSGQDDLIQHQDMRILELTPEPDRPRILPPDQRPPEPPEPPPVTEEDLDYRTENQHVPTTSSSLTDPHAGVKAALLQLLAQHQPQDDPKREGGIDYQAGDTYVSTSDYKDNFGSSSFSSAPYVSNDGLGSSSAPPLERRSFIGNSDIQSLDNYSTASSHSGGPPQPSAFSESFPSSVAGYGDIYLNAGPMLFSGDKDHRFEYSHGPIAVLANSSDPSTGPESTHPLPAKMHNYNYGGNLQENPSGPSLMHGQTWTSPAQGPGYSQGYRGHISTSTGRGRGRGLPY

CSNK1G3 = biological target: T10, CSNK1G3 (Homo sapiens, UniProt Q9Y6M4)
T10 construct: purchased DiscoverX (KINOMEscan)

EGFR(G719S) = biological target: T11, EGFR(G719S) (Homo sapiens, UniProt P00533, G719S)
T11 construct: purchased DiscoverX (KINOMEscan)

FLT3(K663Q) = biological target: T12, FLT3(K663Q) (Homo sapiens, UniProt P36888, K663Q)
T12 construct: purchased DiscoverX (KINOMEscan)

CAMK2G = biological target: T13, CAMK2G (Homo sapiens, UniProt Q13555)
T13 construct: purchased DiscoverX (KINOMEscan)

BRAF(V600E) = biological target: T14, BRAF(V600E) (Homo sapiens, UniProt P15056, V600E)
T14 construct: purchased DiscoverX (KINOMEscan)
T14 sequence (P15056 whole entry V600E): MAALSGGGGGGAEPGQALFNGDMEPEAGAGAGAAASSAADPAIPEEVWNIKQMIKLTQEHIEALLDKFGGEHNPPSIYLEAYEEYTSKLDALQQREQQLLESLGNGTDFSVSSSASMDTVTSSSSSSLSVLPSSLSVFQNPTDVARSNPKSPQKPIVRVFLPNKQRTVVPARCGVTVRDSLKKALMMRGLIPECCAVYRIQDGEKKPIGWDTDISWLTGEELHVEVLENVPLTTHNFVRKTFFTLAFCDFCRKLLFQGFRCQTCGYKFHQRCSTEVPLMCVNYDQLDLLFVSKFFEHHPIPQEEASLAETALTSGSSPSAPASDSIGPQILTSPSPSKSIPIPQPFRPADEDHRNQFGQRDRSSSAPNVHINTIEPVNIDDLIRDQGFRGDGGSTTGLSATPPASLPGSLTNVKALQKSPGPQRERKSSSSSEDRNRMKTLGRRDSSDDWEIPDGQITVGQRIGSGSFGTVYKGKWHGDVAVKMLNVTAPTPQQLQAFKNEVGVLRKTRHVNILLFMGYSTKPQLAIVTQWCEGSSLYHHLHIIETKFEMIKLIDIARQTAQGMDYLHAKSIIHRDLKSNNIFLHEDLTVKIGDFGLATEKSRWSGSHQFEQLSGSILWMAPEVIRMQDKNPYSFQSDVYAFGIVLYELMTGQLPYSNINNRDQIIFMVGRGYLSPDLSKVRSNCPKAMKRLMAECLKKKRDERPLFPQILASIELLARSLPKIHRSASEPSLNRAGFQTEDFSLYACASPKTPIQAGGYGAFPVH

ERK5 = biological target: T15, ERK5 (Homo sapiens, UniProt Q13164)
T15 construct: purchased DiscoverX (KINOMEscan)

CSF1R = biological target: T16, CSF1R (Homo sapiens, UniProt P07333)
T16 construct: purchased DiscoverX (KINOMEscan)

[1] = biological target: T17, ABL1(Y253F)-phosphorylated (Homo sapiens, UniProt P00519, Y253F)
T17 construct: purchased DiscoverX (KINOMEscan)

JNK1 = biological target: T18, JNK1 (Homo sapiens, UniProt P45983)
T18 construct: purchased DiscoverX (KINOMEscan)

LOK = biological target: T19, LOK (Homo sapiens, UniProt O94804)
T19 construct: purchased DiscoverX (KINOMEscan)

DRAK1 = biological target: T20, DRAK1 (Homo sapiens, UniProt Q9UEE5)
T20 construct: purchased DiscoverX (KINOMEscan)

CDKL3 = biological target: T21, CDKL3 (Homo sapiens, UniProt Q8IVW4)
T21 construct: purchased DiscoverX (KINOMEscan)

MST1R = biological target: T22, MST1R (Homo sapiens, UniProt Q04912)
T22 construct: purchased DiscoverX (KINOMEscan)
T22 sequence (Q04912 25-1400): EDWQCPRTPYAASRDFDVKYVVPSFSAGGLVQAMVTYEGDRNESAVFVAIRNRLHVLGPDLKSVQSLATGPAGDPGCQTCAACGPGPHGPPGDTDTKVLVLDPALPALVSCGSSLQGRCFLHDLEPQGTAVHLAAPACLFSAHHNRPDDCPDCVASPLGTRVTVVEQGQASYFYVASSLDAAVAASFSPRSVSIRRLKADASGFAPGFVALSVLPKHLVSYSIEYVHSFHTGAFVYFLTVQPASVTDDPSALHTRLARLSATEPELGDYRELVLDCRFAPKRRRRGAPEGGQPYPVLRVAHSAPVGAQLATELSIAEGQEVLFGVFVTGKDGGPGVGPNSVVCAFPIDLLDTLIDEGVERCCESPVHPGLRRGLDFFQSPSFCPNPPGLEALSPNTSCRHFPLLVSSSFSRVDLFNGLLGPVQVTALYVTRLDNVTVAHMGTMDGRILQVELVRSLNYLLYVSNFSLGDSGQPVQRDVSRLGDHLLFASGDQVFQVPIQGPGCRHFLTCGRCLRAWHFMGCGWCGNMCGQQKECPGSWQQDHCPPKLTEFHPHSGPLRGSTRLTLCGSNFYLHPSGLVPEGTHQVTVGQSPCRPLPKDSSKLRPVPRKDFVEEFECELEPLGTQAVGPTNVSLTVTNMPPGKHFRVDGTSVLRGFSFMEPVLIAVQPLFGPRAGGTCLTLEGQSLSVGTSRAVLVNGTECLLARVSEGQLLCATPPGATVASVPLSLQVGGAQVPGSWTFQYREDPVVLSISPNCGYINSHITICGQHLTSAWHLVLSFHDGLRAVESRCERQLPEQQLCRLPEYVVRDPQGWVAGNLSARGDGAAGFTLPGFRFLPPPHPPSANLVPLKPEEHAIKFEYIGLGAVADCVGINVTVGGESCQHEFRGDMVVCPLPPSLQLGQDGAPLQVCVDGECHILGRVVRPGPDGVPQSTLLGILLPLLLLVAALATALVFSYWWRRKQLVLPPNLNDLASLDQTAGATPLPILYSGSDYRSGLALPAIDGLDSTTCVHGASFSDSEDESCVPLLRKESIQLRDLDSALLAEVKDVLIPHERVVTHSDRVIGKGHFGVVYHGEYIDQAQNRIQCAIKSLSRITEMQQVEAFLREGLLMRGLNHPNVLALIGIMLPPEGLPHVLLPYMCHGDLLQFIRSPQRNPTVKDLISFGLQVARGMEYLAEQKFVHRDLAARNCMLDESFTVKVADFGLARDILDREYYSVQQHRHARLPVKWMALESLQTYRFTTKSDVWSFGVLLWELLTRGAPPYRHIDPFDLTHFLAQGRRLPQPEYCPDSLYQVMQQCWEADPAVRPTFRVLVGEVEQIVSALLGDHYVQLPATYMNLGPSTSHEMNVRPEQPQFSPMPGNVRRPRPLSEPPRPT

CLK2 = biological target: T23, CLK2 (Homo sapiens, UniProt P49760)
T23 construct: purchased DiscoverX (KINOMEscan)
T23 sequence (P49760 whole entry): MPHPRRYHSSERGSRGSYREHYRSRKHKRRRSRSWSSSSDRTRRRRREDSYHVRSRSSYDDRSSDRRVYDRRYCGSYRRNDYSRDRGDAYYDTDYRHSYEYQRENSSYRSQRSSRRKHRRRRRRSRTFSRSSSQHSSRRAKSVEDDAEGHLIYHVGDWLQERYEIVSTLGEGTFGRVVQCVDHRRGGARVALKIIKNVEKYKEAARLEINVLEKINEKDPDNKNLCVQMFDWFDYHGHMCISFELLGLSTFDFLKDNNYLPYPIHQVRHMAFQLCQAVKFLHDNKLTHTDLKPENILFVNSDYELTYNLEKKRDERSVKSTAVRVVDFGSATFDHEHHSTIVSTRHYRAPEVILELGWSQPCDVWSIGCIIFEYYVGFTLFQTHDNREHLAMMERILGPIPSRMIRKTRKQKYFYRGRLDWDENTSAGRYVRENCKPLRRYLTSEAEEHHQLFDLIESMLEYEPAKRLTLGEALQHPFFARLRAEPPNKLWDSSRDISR

MYLK4 = biological target: T24, MYLK4 (Homo sapiens, UniProt Q86YV6)
T24 construct: purchased DiscoverX (KINOMEscan)

TRKB = biological target: T25, TRKB (Homo sapiens, UniProt Q16620)
T25 construct: purchased DiscoverX (KINOMEscan)

DCAMKL1 = biological target: T26, DCAMKL1 (Homo sapiens, UniProt O15075)
T26 construct: purchased DiscoverX (KINOMEscan)
T26 sequence (O15075 whole entry): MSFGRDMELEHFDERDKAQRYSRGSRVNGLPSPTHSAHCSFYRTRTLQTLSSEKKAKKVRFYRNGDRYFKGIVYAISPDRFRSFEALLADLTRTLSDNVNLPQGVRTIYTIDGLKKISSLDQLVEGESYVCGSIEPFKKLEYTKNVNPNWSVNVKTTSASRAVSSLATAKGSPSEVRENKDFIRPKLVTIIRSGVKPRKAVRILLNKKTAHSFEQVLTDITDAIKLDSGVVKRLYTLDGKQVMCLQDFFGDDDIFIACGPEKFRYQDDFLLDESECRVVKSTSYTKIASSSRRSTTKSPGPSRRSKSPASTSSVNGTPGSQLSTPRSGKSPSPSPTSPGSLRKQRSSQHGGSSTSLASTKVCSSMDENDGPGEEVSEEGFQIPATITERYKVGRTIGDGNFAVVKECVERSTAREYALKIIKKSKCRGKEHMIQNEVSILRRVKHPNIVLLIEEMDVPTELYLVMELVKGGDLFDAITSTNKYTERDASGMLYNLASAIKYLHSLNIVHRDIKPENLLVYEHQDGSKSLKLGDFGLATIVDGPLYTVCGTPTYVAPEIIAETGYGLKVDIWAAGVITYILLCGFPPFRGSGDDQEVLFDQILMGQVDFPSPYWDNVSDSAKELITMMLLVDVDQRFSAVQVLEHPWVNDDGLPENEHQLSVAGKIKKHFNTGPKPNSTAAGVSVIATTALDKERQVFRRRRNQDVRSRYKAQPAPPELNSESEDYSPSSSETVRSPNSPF

ADCK3 = biological target: T27, ADCK3 (Homo sapiens, UniProt Q8NI60)
T27 construct: purchased DiscoverX (KINOMEscan)

CAMK1G = biological target: T28, CAMK1G (Homo sapiens, UniProt Q96NX5)
T28 construct: purchased DiscoverX (KINOMEscan)

SLK = biological target: T29, SLK (Homo sapiens, UniProt Q9H2G2)
T29 construct: purchased DiscoverX (KINOMEscan)

STK35 = biological target: T30, STK35 (Homo sapiens, UniProt Q8TDR2)
T30 construct: purchased DiscoverX (KINOMEscan)

IKK-alpha = biological target: T31, IKK-alpha (Homo sapiens, UniProt O15111)
T31 construct: purchased DiscoverX (KINOMEscan)

MAPKAPK5 = biological target: T32, MAPKAPK5 (Homo sapiens, UniProt Q8IW41)
T32 construct: purchased DiscoverX (KINOMEscan)

FLT3(D835H) = biological target: T33, FLT3(D835H) (Homo sapiens, UniProt P36888, D835H)
T33 construct: purchased DiscoverX (KINOMEscan)

CDC2L1 = biological target: T34, CDC2L1 (Homo sapiens, UniProt P21127)
T34 construct: purchased DiscoverX (KINOMEscan)

TGFBR2 = biological target: T35, TGFBR2 (Homo sapiens, UniProt P37173)
T35 construct: purchased DiscoverX (KINOMEscan)

MARK4 = biological target: T36, MARK4 (Homo sapiens, UniProt Q96L34)
T36 construct: purchased DiscoverX (KINOMEscan)

SRPK1 = biological target: T37, SRPK1 (Homo sapiens, UniProt Q96SB4)
T37 construct: purchased DiscoverX (KINOMEscan)

In the case of `COc1cc(/C=C2\N=C(N)NC2=O)ccc1O` [Polyandrocarpamine A], the Score (EGFR(T790M)) is reported as 93, the Score (BTK) is reported as 100 and the Score (MST1) is reported as 70. The Score (CASK) was 100, the Score (LIMK2) was 96 and the Score (p38-alpha) was 100. The Score (MAP4K2) was 97, the Score (ACVR1) was 100 and the Score (CDC2L5) was 100. The Score (CSNK1G3) was 84, the Score (EGFR(G719S)) was 100 and the Score (FLT3(K663Q)) was 100. It also gave a Score (CAMK2G) of 99, a Score (BRAF(V600E)) of 96 and a Score (ERK5) of 100. For the same compound, the Score (CSF1R) was 87, the Score [1] was 100 and the Score (JNK1) was 100. For the same compound, the Score (LOK) was 100, the Score (DRAK1) was 42 and the Score (CDKL3) was 100. The Score (MST1R) was 100, the Score (CLK2) was 45 and the Score (MYLK4) was 96. For the same compound, the Score (TRKB) was 100, the Score (DCAMKL1) was 98 and the Score (ADCK3) was 100. For the same compound, the Score (CAMK1G) was 100, the Score (SLK) was 100 and the Score (STK35) was 95. For the same compound, the Score (IKK-alpha) was 100, the Score (MAPKAPK5) was 100 and the Score (FLT3(D835H)) was 94. The Score (CDC2L1) was 100, the Score (TGFBR2) was 100 and the Score (MARK4) was 100. For the same compound, the Score (SRPK1) was 100.

From paper PMC5666424, “Marine-Derived 2-Aminoimidazolone Alkaloids. Leucettamine B-Related Polyandrocarpamines Inhibit Mammalian and Protozoan DYRK & CLK Kinases” (Marine Drugs, 2017)
